Assays:
SARS virus [1] = settings: background art; cited from earlier work
SARS virus [2] = assay: microbe, parasite or virus in culture; assay type: cell-based, SARS-associated coronavirus; settings: Severe acute respiratory syndrome coronavirus, Vero, read-out: EC50 (concentration required to inhibit cytopathic effects by viral infection to 50% of the control value)
in vitro = settings: African green monkey
SARS virus [3] = assay type: cell-based, SARS-associated coronavirus; settings: 10 μM, Vero cells, FIG. 1D
SARS virus [4] = assay type: cell-based, SARS-associated coronavirus; settings: 10 μM, FIG. 1E
SARS virus [5] = assay type: cell-based, SARS-associated coronavirus; settings: 10 μM, FIG. 1B

Structure (SMILES)	Efficacy against the SARS virus as reported in the literature (SARS virus [1])	EC50 (SARS virus [2])	CC50 (in vitro)	SARS virus infection by immunofluorescence antibody staining (SARS virus [3])	RNA levels of the SARS virus in Vero cells (RT-PCR) (SARS virus [4])	Morphology of SARS virus-infected Vero cells (SARS virus [5])
CC1(C)[C@@H](O[C@H]2O[C@H](C(=O)O)[C@@H](O)[C@H](O)[C@H]2O[C@@H]2O[C@H](C(=O)O)[C@@H](O)[C@H](O)[C@H]2O)CC[C@]2(C)[C@H]3C(=O)C=C4[C@@H]5C[C@@](C)(C(=O)O)CC[C@]5(C)CC[C@@]4(C)[C@]3(C)CC[C@@H]12 [Glycyrrhizin, glycyrrhizin]	extremely limited potency	364 µM	> 24300 µM			
Cc1c(O)cccc1C(=O)N[C@@H](CSc1ccccc1)[C@H](O)CN1C[C@H]2CCCC[C@H]2C[C@H]1C(=O)NC(C)(C)C [Nelfinavir, nelfinavir]		0.0484 µM	14.6 µM	advantageously controlled	highly inhibitive against the propagation of the SARS virus	had the same morphology as normal cells

— US7495011B2 (priority 2003, dated 2009)
